# Assays:
# [1] = tested on: HIF1 inducible promoter (hRE-hCMV-Luc) in MDA-MB-231 cells; test: Luciferase assay of hypoxia-inducible promoter activity; assay type: cell-based, human; conditions: MDA-MB-231 hRE-hCMV-Luc, 300 uM desferrioxamine mesylate 18 h; 200 nM and 600 nM
# Procedure: We first examined the effect of designed ETPs on activation of the HIF1 inducible promoters. […] In the course of the experiment, cells were incubated with ETPs LS69, LS72, LS75 and DKP compound NP481. In parallel, untreated cells with only vehicle (DMSO) added, were used as controls. Hypoxia conditions were induced by incubating cells with 300 uM desferrioxamine mesylate for 18 h. Cells were harvested, lysed and the levels of luciferase were determined by a luminometer.
# Luciferase assays. MDA-MB-231-hRE-Luc cells were maintained in high glucose Dulbecco's Modified Eagles' Medium (DMEM) supplemented with 10%© fetal bovine serum and 0.4 g/L Geneticin (G418 sulfate, RPI Corporation). Cells were plated in 24-well dishes (BD Falcon) at a density of 6×10^4 cells/well using 1 mL of a 6.5×10^4 cell/mL suspension. […] Cells were incubated for 6 h at 37° C. in a humidified atmosphere with 5% CO2. Hypoxia was induced by adding desferrioxamine mesylate (DFO, Sigma) to a final concentration of 300 μM, and cells were incubated for an additional 18 hours. Whole cell lysate was isolated by washing the cells twice with ice cold PBS and then adding 150 μL of Cell Culture Lysis Reagent (CCLR, Promega). Lysate was collected, centrifuged at 13,000 rpm at 4° C., aliquoted, and stored at −80° C. Luciferase assays were conducted by allowing whole cell lysate and Luciferase Assay Reagent (Promega) come to ambient temperature for 1 hour prior to use. Luciferase assays were conducted according to the manufacturer's instructions (Promega) using a Turner TD-20e Luminometer. Relative light intensity measurements were normalized by performing a Bradford assay to determine the protein content of the lysate used in the luciferase assay. Briefly, 50 μL of cell lysate/luciferase assay reagent mix was added to 200 μL of Bradford reagent and 750 μl, of Millipore water in a 1.5 mL cuvette. Protein standards were created in the range of 1 mg/mL to 10 μg/mL using an appropriate amount of a 1 mg/mL BSA solution. Absorbance was measured at 595 nm using a DU-800 spectrophotometer. The experiments were carried out in triplicate. The results are presented in FIG. 6 with the bar graphs represent mean values, and error bars—standard error of the mean value.
# [2] = tested on: VEGF mRNA in A549 cells; test: qRT-PCR of VEGF mRNA in A549 cells; assay type: cell-based
# Procedure: FIG. 13 mRNA levels of three HIF1α inducible genes: VEGF, c-Met and Glut1 in A549 cells after treatment with LS72. Data from qRT-PCR experiments showing mRNA levels of three HIF1α inducible genes, VEGF, c-Met and Glut1 in A549 after treatment of the cells in a medium with 0.2% serum with LS72 (400 nM). Hypoxia was induced 300 μM by DFO. Error bars are ±s.e.m for the experiments performed in […]. Error bars are ±s.e.m. of experiments performed in triplicate. ***P<0.001, ** P<0.01, t test.
# FIG. 15 mRNA levels for VEGF in A549 cell line, illustrating the dose response to LS72 treatment at three different concentrations. qRT-PCR assays were performed in order to determine the mRNA levels for VEGF in A549 cell line treated with LS72 at concentrations: 100 nM, 400 nM, 1600 nM. Hypoxia was induced by DFO (300 μM). Error bars are ±sem for the experiments performed in triplicate. Error bars are ±s.e.m. of experiments performed in triplicate. ** P<0.01, * P<0.05, t test.
# (§1) After tests with various serum levels in the media and hypoxia induction methods, the conditions that worked remarkably and consistently well for the induction of HIF1α dependent genes were to keep A549 cells in 2% serum followed by treating cells with compound or control in the media with 0.2% serum for 48 h (FIG. 13). Under these conditions while hypoxia bag was the best option for induction of the LOX gene, the best hypoxic response leading to upregulation of many other HIF1α inducible genes was treatment with 300 μM DFO.
# (§2) The hypoxia induction was done at a confluency of 85% cells in serum free F-12K medium with 300 μM DFO.
# [3] = tested on: CXCR4 mRNA in A549 cells; test: qRT-PCR of CXCR4 mRNA in A549 cells; assay type: cell-based
# Procedure: FIGS. 14 (A) qRT-PCR data for LOX and (B) CXCR4 genes in A549 cells treated with LS72. Hypoxia was induced by hypoxia bag. Cells were maintained in F-12K medium with 2% serum. After reaching 65% confluency the cells were grown in serum free media and treated with LS72 (400 nM). Hypoxia was induced with DFO (300 μM) for 48 h. Error bars are s.e.m. of experiments performed in triplicate. **P<0.01, t test.
# FIG. 18 qRT-PCR data for A549 cells where hypoxia was induced in 85% confluent cells. […] Error bars are ±sem for the experiments performed in triplicate. ** P<0.01, # P<0.1, t test.
# as §1, §2
compound,measurement,setting,value
"CN1C(=O)[C@]2(Cc3ccc(CCc4ccc(C[C@@]56SS[C@@](CO)(C(=O)N5C)N(C)C6=O)cc4)cc3)SS[C@@]1(CO)C(=O)N2C (racemic) [LS72, 4,4′-((ethane-1,2-diylbis(4,1-phenylene))bis(methylene))bis(1-(hydroxymethyl)-5,7-dimethyl-2,3-dithia-5,7-diazabicyclo[2.2.2]octane-6,8-dione)]",hypoxia-inducible promoter activity (luciferase),[1],significant reduction in hypoxia-inducible promoter activity
same,"HIF1α inducible transcription of VEGF, dose response","[2]; A549 85% confluent, hypoxia 300 μM DFO, 100 nM, 400 nM, 1600 nM",dose dependent decrease
same,reduction of VEGF mRNA levels,"[2]; A549, LS72 400 nM, 0.2% serum, 300 μM DFO, 48 h",50%
same,VEGF transcription levels in normoxia,"[2]; A549, normoxia, 100 nM, 400 nM, 1600 nM",not changed significantly
same,"CXCR4 mRNA levels, dose response","[3]; A549 85% confluent, 300 μM DFO, 400 nM and 1600 nM",dose-dependent decrease
same,CXCR4 transcriptional activity (in words),"[3]; A549, 400 nM",excellent inhibition of the transcriptional activity
